Like-named read-outs stand apart in the source and are kept apart here.
Key:
[1] = test system: undifferentiated mouse skeletal muscle-derived myoblast line, C2C12 cells; details: vs 1×PBS control
Protocol: (§1) C2C12 cells were subcultured at 37° C. in the presence of 5% CO2, using Dulbecco's Modified Eagle Medium (DMEM) (Nissui, Tokyo, Japan) containing 10% inactivated FBS, penicillin (100,000 U/L; Meiji, Tokyo, Japan), streptomycin (100 mg/L: Meiji), NaHCO3 (2.0 g/L: Wako, Osaka, Japan), and L-glutamine (Wako).
The number of mitochondria in C2C12 cells was measured as follows.
(§2) C2C12 cells were seeded in 6-well plates at 4.0×10^5 cells/well, and after 24 hours, β-alanine was added thereto at a concentration of 500 μM or 1 mM. In addition, 1×PBS was added to as a control well. After 2 hours from the above addition, the medium was removed by suction, and 2 mL/well of Mito Tracker Green FM (Invitrogen) which is diluted to 200 nM in DMEM medium containing 10% FBS, was added. Then, the whole was incubated for 30 minutes at 37° C. in the presence of 5% CO2 under shading. Then, the diluted solution was removed by suction, and 1×PBS was added at 1 mL/well to wash the cells. 1×PBS was removed by suction and trypsin was added at 500 μL/well. Then, trypsin was removed by suction and incubated at 37° C. in the presence of 5% CO2 for 5 minutes under shading. After incubation, the cells were suspended to 1 mL of DMEM medium containing 10% FBS to be collected in a 1.5 mL tube. After passing this cell suspension through a nylon mesh (Kyoshin Riko, Tokyo, Japan), the cells were measured by a flow cytometer (EPICS XL System II-JK, Beckman Coulter, CA, USA; Cell Analyzer EC800 CSC, Sony, Tokyo, Japan). The analysis was performed at the FCM analysis software FlowJo (TOMY Digital Biology, Tokyo, Japan).
(§3) In addition, cells were seeded, and β-alanine was added thereto at a concentration of 100 μM or 1 mM. After 24 hours, β-alanine was secondary added, and the medium was aspirated after 24 hours of the second addition. Using the above cells treated with β-alanine for 48 hours as cells to which the diluted solution of Mito Tracker Green FM (Invitrogen) was added, the same procedure as the cells treated with β-alanine for 2 hours was repeated.
Mito Tracker Green FM (Invitrogen) is a fluorescent reagent that stains mitochondria independently of the membrane potential.
(§4) The procedure described in Example 1 was repeated, except that glycine was used instead of β-alanine.

[2] = test system: undifferentiated mouse skeletal muscle-derived myoblast line, C2C12 cells; details: for mitochondrial activation (Mito Tracker Red CMXRos): vs 1×PBS control
Protocol: as §1
as §2, with “The number of activated mitochondria in C2C12 cells was measured as follows. C2C12” for “C2C12”, “Red CMXRos (Invitrogen)” for “Green FM”, “250” for “200”, “tube.” for “tube. After passing this cell suspension through a nylon mesh (Kyoshin Riko, Tokyo, Japan), the cells were measured by a flow cytometer (EPICS XL System II-JK, Beckman Coulter, CA, USA; Cell Analyzer EC800 CSC, Sony, Tokyo, Japan). The analysis was performed at the FCM analysis software FlowJo (TOMY Digital Biology, Tokyo, Japan).”
(§5) After passing this cell suspension through a nylon mesh (Kyoshin Riko), the cells were measured by a flow cytometer (EPICS XL System II-JK, Beckman Coulter, CA, USA; Cell Analyzer EC800 CSC, Sony). The analysis was performed at the FCM analysis software FlowJo (TOMY Digital Biology, Tokyo, Japan).
as §3, with “Red CMXRos” for “Green FM”
On the other hand, Mito Tracker Red CMXRos (Invitrogen) is a fluorescent reagent that stains mitochondria in a membrane potential-dependent manner. Therefore,
when a peak of the flow cytometer histogram shifts to the right by the addition of β-alanine, it indicates mitochondrial activity was enhanced.
as §4
The cells were prepared by repeating the procedure of Mito Tracker Red CMX Ros in Example 1 except that the treatment with β-alanine was set to 72 hours.

[3] = test system: undifferentiated mouse skeletal muscle-derived myoblast line, C2C12 cells; details: 48 hours
Protocol: In this example, mitochondrial activation was examined by using a confocal laser scanning microscope.
The cells treated with β-alanine for 48 hours were prepared by the same procedure as in Example 1. C2C12 cells were seeded at a concentration of 3.0×10^4 cells/mL or 5.0×10^4 cell s/mL, and Mito Tracker Green FM (Invitrogen) and Mito Tracker Red CMXRos (Invitrogen) were added simultaneously. The resulting cells were observed under a confocal laser scanning microscope (Olympus).

[4] = test system: Acaa1b gene; details: differentiated C2C12 cells; 500 μM
Protocol: (§6) In this example, the transcription of the genes for Acaa1b and Acaa2 in β-alanine-treated mouse skeletal muscle-derived myoblast line, C2C12 cells was measured.
(§7) The procedure described in Example 4 was repeated except that the Acaa1b forward primer and the Acaa1b reverse primer, or the Acaa2 forward primer and the Acaa2 reverse primer were used instead of the Pgc-1α forward primer and the Pgc-1α reverse primer.

[5] = test system: Acaa2 gene; details: differentiated C2C12 cells; 500 μM
Protocol: as §6, §7

[6] = test system: Pgc-1α gene; details: differentiated C2C12 cells, 48 hours, relative to β-actin, ΔΔCt method
[7] = test system: C2C12 cells differentiated into myotube cells
Protocol: as §2
(§8) In addition, cells were seeded, and β-alanine was added thereto at a concentration of 100 μM or 1 mM. […]

[8] = test system: C2C12 cells differentiated into myotube cells; remark: listed apart in the source
Protocol: as §2, with “The number of activated mitochondria in C2C12 cells was measured as follows. C2C12” for “C2C12”, “Red CMXRos (Invitrogen)” for “Green FM”, “250” for “200”, “tube.” for “tube. After passing this cell suspension through a nylon mesh (Kyoshin Riko, Tokyo, Japan), the cells were measured by a flow cytometer (EPICS XL System II-JK, Beckman Coulter, CA, USA; Cell Analyzer EC800 CSC, Sony, Tokyo, Japan). The analysis was performed at the FCM analysis software FlowJo (TOMY Digital Biology, Tokyo, Japan).”
as §5, §8

[9] = treatment time 2 hours, 500 μM or 1 mM
[10] = treatment time 48 hours, 100 μM or 1 mM

Which “number of mitochondria (Mito Tracker Green FM)” value [1, 9] does the source give for `NCCC(=O)O` [β-alanine, 3-aminopropanoic acid] here?
The value was “increased in a concentration-dependent manner”.

And the “number of mitochondria (Mito Tracker Green FM)” value [1, 10]?
Its value is “increased in a concentration-dependent manner”.

What about the “fluorescence of Mito Tracker Red (flow cytometry)” value ([2]; treatment 72 hours) of the same molecule?
Its value is “increased the fluorescence”.

And the “mitochondrial activation (Mito Tracker Red CMXRos)” value [2, 9]?
The value was “mitochondrial activation was confirmed”.

What about the “mitochondrial activation (Mito Tracker Red CMXRos)” value [2, 10] of the same molecule?
Its value is “mitochondrial activation was confirmed”.

And the “red fluorescence of Mito Tracker Red CMX Ros (confocal microscope)” value ([3]; 500 μM)?
The value was “strengthened the red fluorescence”.

And the “red fluorescence of Mito Tracker Red CMX Ros (confocal microscope)” value ([3]; 1 mM)?
Its value is “further strengthened the red fluorescence”.

What about the “expression of Acaa1b” value [4] of the same molecule?
The value was “enhanced the expression”.

And the “expression of Acaa2” value [5]?
The value was “enhanced the expression”.

And the “expression of Pgc-1α” value ([6]; 500 μM)?
Its value is “enhanced the expression”.

And the “expression of Pgc-1α” value ([6]; 1 mM)?
The value was “enhanced the expression”.

What does the source list for `NCC(=O)O` [glycine]?
number of mitochondria (Mito Tracker Green FM) [1, 9]: increased in a concentration-dependent manner; number of mitochondria (Mito Tracker Green FM) [1, 10]: increased in a concentration-dependent manner; mitochondrial activation (Mito Tracker Red CMXRos) [2, 9]: mitochondrial activation was confirmed; mitochondrial activation (Mito Tracker Red CMXRos) [2, 10]: mitochondrial activation was confirmed; number of mitochondria (Mito Tracker Green FM) ([7]; treatment time 2 hours): increased in a concentration-dependent manner; number of mitochondria (Mito Tracker Green FM) ([7]; treatment time 48 hours): increased in a concentration-dependent manner; mitochondrial activation (Mito Tracker Red CMXRos) ([8]; treatment time 2 hours): mitochondrial activation was confirmed; mitochondrial activation (Mito Tracker Red CMXRos) ([8]; treatment time 48 hours): mitochondrial activation was confirmed; expression of Pgc-1α ([6]; 500 μM): enhanced the expression
